In US12344610B2, “APOL1 inhibitors and methods of use” (Maze Therapeutics, Inc., priority 2022, dated 2025) one finds EC50 data, which are given here for 15 compounds.

The test system of test [1] is HEK293 cells overexpressing APOL1 G2. The test is described as follows: APOL1 G2 HEK293 cell rescue assay (reversal of cell death caused by overexpression of APOL1). Type of test: cell-based. Conditions: Homo sapiens, HEK293, HEK293 overexpressing APOL1 G2; geometric mean of at least 2 assay runs; † = single assay run. Put shortly: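 EC50 is the half-maximal effective concentration for reversing cell death driven by APOL1 G2 overexpression in HEK293 cells. Reported as geometric mean of at least 2 runs on separate days, each run averaging duplicate wells per plate; some values from a single run.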

Test [2] concerns Trypanosoma brucei Lister 427 VSG221 with APOL1 G2 recombinant protein. The test is described as follows: APOL1 G2 trypanosome cell rescue assay (Example B5). Type of test: cell-based. The following applies: Trypanosoma brucei, 20 h, read-out: APOL1 G2 Trypanosome Rescue EC50, Trypanosoma brucei Lister 427 VSG221 with APOL1 G2 recombinant protein, 20 hours, CellTiter-Glo; geometric mean of at least 2 assay runs; † = single assay run. In short, it runs like this:
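Recombinant mature APOL1 (residues 28-398, His-tag removed, E. coli-expressed, refolded from inclusion bodies, DDM buffer) at […] added with 250 trypanosomes/well in modified HMI-9 media. Duplicate 11-point 2-fold compound series, 0.4% DMSO; 20 h at 37° C, 5% CO2, then CellTiter-Glo luminescence for viability.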
(In general: In ATP-based viability assays light output follows the ATP content of the culture.)

As to `[2H]C([2H])([2H])[C@]1(O)C[C@@H](N2C(=O)CCc3cc(OCCN4CCC5(CC4)C(=O)Nc4ccc(Cl)cc45)cnc32)C1` [Compound 461, 5-chloro-1′-[2-({7-oxo-8-[(cis)-3-hydroxy-3-(^2H3)methylcyclobutyl]-5,6,7,8-tetrahydro-1,8-naphthyridin-3-yl}oxy)ethyl]-1,2-dihydrospiro[indole-3,4′-piperidin]-2-one], the EC50 in test [1] is 28.1 nM; in test [2], 28.8 nM.
The matching figures for `Cc1ccc2c(c1)C1(CCN(CCOc3ccc(S(C)(=O)=O)cc3)CC1)C(=O)N2` [Compound 66, 1′-[2-(4-methanesulfonylphenoxy)ethyl]-5-methyl-1,2-dihydrospiro[indole-3,4′-piperidin]-2-one]: 108 nM and 97.6 nM.
The matching figures for `O=C1CCc2cc(OCCN3CCC4(CC3)C(=O)Nc3ccc(Cl)cc34)cnc2N1C1CC(CO)C1` (stereo not drawn) [Compound 326, 5-chloro-1′-[2-({8-[3-(hydroxymethyl)cyclobutyl]-7-oxo-5,6,7,8-tetrahydro-1,8-naphthyridin-3-yl}oxy)ethyl]-1,2-dihydrospiro[indole-3,4′-piperidin]-2-one]: 31.2 nM and 32.7 nM.
The matching figures for `C[C@]1(O)C[C@@H](n2ccc3cc(OCCN4CCC5(CC4)C(=O)Nc4ccc(C#N)cc45)cnc32)C1` [Compound 410, 2-oxo-1′-[2-({1-[(cis)-3-hydroxy-3-methylcyclobutyl]-1H-pyrrolo[2,3-b]pyridin-5-yl}oxy)ethyl]-1,2-dihydrospiro[indole-3,4′-piperidine]-5-carbonitrile]: 64.1 nM and 92.4 nM.
As to `C[C@]1(O)C[C@@H](N2C(=O)Cc3cc(OCCN4CCC5(CC4)C(=O)Nc4ccc(C(F)F)cc45)cnc32)C1` [Compound 346, 5-(difluoromethyl)-1′-[2-({2-oxo-1-[(cis)-3-hydroxy-3-methylcyclobutyl]-1H,2H,3H-pyrrolo[2,3-b]pyridin-5-yl]oxy)ethyl]-1,2-dihydrospiro[indole-3,4′-piperidin]-2-one], the EC50 amounted to 34.3 nM in test [1] and 37.7 nM in test [2].
For `CC(c1ncc(OCCN2CCC3(CC2)C(=O)Nc2ccc(Cl)cc23)cn1)S(C)(=O)=O` (stereo not drawn) [Compound 1, 5-Chloro-1′-(2-{[2-(1-methanesulfonylethyl)pyrimidin-5-yl]oxy}ethyl)-1,2-dihydrospiro[indole-3,4′-piperidin]-2-one], in that order: 120 nM and 89.6 nM.
The matching figures for `CP(C)(=O)C1(c2ccc(OCCN3CCC4(CC3)C(=O)Nc3ccc(Cl)cc34)cc2)CC1` [Compound 343, 5-chloro-1′-(2-{4-[1-(dimethylphosphoryl)cyclopropyl]phenoxy}ethyl)-1,2-dihydrospiro[indole-3,4′-piperidin]-2-one]: 162 nM and 64.2 nM.
The matching figures for `CCC1(O)CN(c2ncc(OCCN3CCC4(CC3)C(=O)Nc3ccc(Cl)cc34)cn2)C1` [Compound 397, 5-chloro-1′-(2-{[2-(3-ethyl-3-hydroxyazetidin-1-yl)pyrinlidin-5-yl]oxy}ethyl)-1,2-dihydrospiro[indole-3,4′-piperidin]-2-one]: 45.9 nM and 85.2 nM.
Consider `CC(c1ccc(OCCN2CCC3(CC2)C(=O)Nc2ccc(Cl)cc23)cc1)S(C)(=O)=O` (single isomer, unassigned) [Compound 39, 5-chloro-1′-(2-{4-[(1S) or (1R)-1-methanesulfonylethyl]phenoxy}ethyl)-1,2-dihydrospiro[indole-3,4′-piperidin]-2-one], for which the 50% effective concentration (EC50) in test [1] stood at 56.7 nM; in test [2], 53 nM.
The matching figures for `C[C@]1(O)C[C@@H](n2c(=O)ccc3cc(OCCN4CCC5(CC4)C(=O)Nc4ccc(OC(F)F)cc45)cnc32)C1` [Compound 328, 5-(difluoromethoxy)-1′-[2-({7-oxo-8-[(cis)-3-hydroxy-3-methylcyclobutyl]-7,8-dihydro-1,8-naphthyridin-3-yl}oxy)ethyl]-1,2-dihydrospiro[indole-3,4′-piperidin]-2-one]: 34.1 nM and 23.9 nM.
For `C[C@]1(O)C[C@H](n2ncc3cc(OCCN4CCC5(CC4)C(=O)Nc4ccc(Cl)cc45)cnc32)C1` (single isomer, unassigned) [Compound 408, 5-chloro-1′-[2-({1-[(trans)-3-hydroxy-3-methylcyclobutyl]-1H-pyrazolo[3,4-b]pyridin-5-yl}oxy)ethyl]-1,2-dihydrospiro[indole-3,4′-piperidin]-2-one], in that order: 23.1 nM and 43.6 nM.
For `C[C@]1(O)C[C@@H](N2C(=O)C3(CC3)c3cc(OCCN4CCC5(CC4)C(=O)Nc4ccc(Cl)cc45)cnc32)C1` [Compound 460, 5-chloro-1′-(2-{2′-oxo-1′-[(cis)-3-hydroxy-3-methylcyclobutyl]-1′,2′-dihydrospiro[cyclopropane-1,3′-pyrrolo[2,3-b]pyridin]-5′-yloxy}ethyl)-1,2-dihydrospiro[indole-3,4′-piperidin]-2-one], in that order: 54.1 nM and 53.7 nM.
Take `C[C@]1(O)C[C@@H](n2nnc3cc(OCCN4CCC5(CC4)C(=O)Nc4ccc(C#N)cc45)cc(C(F)(F)F)c32)C1` [Compound 435, 2-oxo-1′-[2-({1-[(cis)-3-hydroxy-3-methylcyclobutyl]-7-(trifluoromethyl)-1H-1,2,3-benzotriazol-5-yl}oxy)ethyl]-1,2-dihydrospiro[indole-3,4′-piperidine]-5-carbonitrile]: the EC50 in test [1] stood at 12.9 nM; in test [2], 14.5 nM.
The matching figures for `CS(=O)(=O)c1ccc(OCCN2CCC3(CC2)C(=O)Nc2ccc(Cl)cc23)cc1` [Compound 69, 5-chloro-1′-[2-(4-methanesulfonylphenoxy)ethyl]-1,2-dihydrospiro[indole-3,4′-piperidin]-2-one]: 82.6 nM and 46.5 nM.
For `CC(C)[C@]1(O)C[C@@H](N2C(=O)CCc3cc(OCCN4CCC5(CC4)C(=O)Nc4ccc(Cl)cc45)cnc32)C1` [Compound 317, 5-chloro-1′-[2-({7-oxo-8-[(cis)-3-hydroxy-3-(propan-2-yl)cyclobutyl]-5,6,7,8-tetrahydro-1,8-naphthyridin-3-yl}oxy)ethyl]-1,2-dihydrospiro[indole-3,4′-piperidin]-2-one], in that order: 23.9 nM and 11.5 nM.

What is called EC50 is the concentration needed to bring the measured effect to its halfway point.
